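Five concentrations, 48 hours, 96-well plates. GI50 is the concentration that inhibits growth by half.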 Activity calls are given as the source filed them. No stated cut-off is given here; in the data, active = GI50 up to about 1.1 µM and inactive = higher.
What was measured:
Experiment in all cases: growth of human tumour cells (NCI), 48 h
SF-539 = system: SF-539
MOLT-4 = system: MOLT-4
BT-549 = system: BT-549
SK-MEL-28 = system: SK-MEL-28
SNB-75 = system: SNB-75
HL-60 = system: HL-60
PC-3 = system: PC-3
DU-145 = system: DU-145
UACC-62 = system: UACC-62
MDA-MB-231 = system: MDA-MB-231
KM12 = system: KM12
NCI/ADR-RES = system: NCI/ADR-RES
SF-295 = system: SF-295
U-251 = system: U-251
OVCAR-8 = system: OVCAR-8
OVCAR-3 = system: OVCAR-3
HCC 2998 = system: HCC 2998
M14 = system: M14
HOP-62 = system: HOP-62
SF-268 = system: SF-268
A549 = system: A549
COLO 205 = system: COLO 205
NCI-H23 = system: NCI-H23
UO-31 = system: UO-31
SNB-19 = system: SNB-19
LOX IMVI = system: LOX IMVI
CCRF-CEM = system: CCRF-CEM
RXF 393 = system: RXF 393
HT-29 = system: HT-29
SK-OV-3 = system: SK-OV-3
MCF7 = system: MCF7
K562 = system: K562
MDA-N = system: MDA-N
HCT-15 = system: HCT-15
EKVX = system: EKVX
SN12C = system: SN12C
HCT-116 = system: HCT-116
SW-620 = system: SW-620
SR = system: SR
MDA-MB-435 = system: MDA-MB-435
NCI-H226 = system: NCI-H226
ACHN = system: ACHN
CAKI-1 = system: CAKI-1
A498 = system: A498
OVCAR-5 = system: OVCAR-5
NCI-H460 = system: NCI-H460
OVCAR-4 = system: OVCAR-4
TK-10 = system: TK-10
IGROV-1 = system: IGROV-1
SK-MEL-5 = system: SK-MEL-5
Hs-578T = system: Hs-578T
UACC-257 = system: UACC-257
Malme-3M = system: Malme-3M
786-0 = system: 786-0
RPMI-8226 = system: RPMI-8226

O=C(C(=O)c1cc(-c2ccccc2)nc2ccc3ccccc3c12)c1ccccc1
GI50 (SF-539): 32.1 µM (inactive)
GI50 (MOLT-4): 22.1 µM (inactive)
GI50 (BT-549): 65.8 µM (inactive)
GI50 (SK-MEL-28): 28.6 µM (inactive)
GI50 (SNB-75): 18.4 µM (inactive)
GI50 (HL-60): 20.7 µM (inactive)
GI50 (PC-3): 43.2 µM (inactive)
GI50 (DU-145): > 100 µM (inactive)
GI50 (UACC-62): 38.8 µM (inactive)
GI50 (MDA-MB-231): > 100 µM (inactive)
GI50 (KM12): 31.3 µM (inactive)
GI50 (NCI/ADR-RES): 97.7 µM (inactive)
GI50 (SF-295): 52.5 µM (inactive)
GI50 (U-251): 34.5 µM (inactive)
GI50 (OVCAR-8): 61.2 µM (inactive)
GI50 (OVCAR-3): 67.1 µM (inactive)
GI50 (HCC 2998): > 100 µM (inactive)
GI50 (M14): 67.5 µM (inactive)
GI50 (HOP-62): 31.6 µM (inactive)
GI50 (SF-268): 20.8 µM (inactive)
GI50 (A549): 68.4 µM (inactive)
GI50 (COLO 205): 88.1 µM (inactive)
GI50 (NCI-H23): 34.1 µM (inactive)
GI50 (UO-31): > 100 µM (inactive)
GI50 (SNB-19): 35.9 µM (inactive)
GI50 (LOX IMVI): 52 µM (inactive)
GI50 (CCRF-CEM): 24.7 µM (inactive)
GI50 (RXF 393): 39 µM (inactive)
GI50 (HT-29): > 100 µM (inactive)
GI50 (SK-OV-3): 46.7 µM (inactive)
GI50 (MCF7): 28.1 µM (inactive)
GI50 (K562): 18.5 µM (inactive)
GI50 (MDA-N): 36.1 µM (inactive)
GI50 (HCT-15): 75 µM
GI50 (EKVX): 76.9 µM (inactive)
GI50 (SN12C): > 100 µM (inactive)
GI50 (HCT-116): 10.6 µM (inactive)
GI50 (SW-620): 59 µM (inactive)
GI50 (SR): 11.7 µM (inactive)
GI50 (MDA-MB-435): 33.2 µM (inactive)
GI50 (NCI-H226): 72.6 µM (inactive)
GI50 (ACHN): > 100 µM (inactive)
GI50 (CAKI-1): 58.3 µM (inactive)
GI50 (A498): 90.4 µM (inactive)
GI50 (OVCAR-5): > 100 µM (inactive)
GI50 (NCI-H460): > 100 µM (inactive)
GI50 (OVCAR-4): 21.1 µM (inactive)
GI50 (TK-10): 99.3 µM (inactive)
GI50 (IGROV-1): 37.9 µM (inactive)
GI50 (SK-MEL-5): 60.1 µM (inactive)
GI50 (Hs-578T): 20.7 µM (inactive)
GI50 (UACC-257): 75.7 µM (inactive)
GI50 (Malme-3M): 27.8 µM (inactive)
GI50 (786-0): 33.5 µM (inactive)
GI50 (RPMI-8226): > 100 µM (inactive)
